Source: patent publication US9878007B2, “Syndecan peptides and polypeptides as inhibitors of vascular endothelial growth factor receptor-2 (VEGFR2) and very late antigen-4 (VLA-4)” (Wisconsin Alumni Research Foundation, priority 2015, dated 2018)
No end group written: not given here.

How the values were obtained:
HMEC-1 cells [1] = assay: Transwell migration / invasion assay of HMEC-1 cells; format: cell-based; details: 16 hr
Protocol: FIGS. 8A-H. HPSE mediated the Sdc1-coupled VEGFR2 complex in endothelial cells induces angiogenesis. (FIG. 8A) Lysates from HPSE^low, HPSE^high and HMEC-1 cells are probed by immunoblotting for expression of HPSE. (FIG. 8B) HMEC-1 cells were seeded at equal density and grown in serum-free media for 24 hr in the absence or presence of 125 μg/ml of the HPSE inhibitor SST0001. After 24 hr, conditioned media were harvested, and the level of shed Sdc1 in the conditioned medium from each condition was determined by immunoblotting. (FIG. 8C) HMEC-1 cell lysate was incubated overnight with glutathione beads coated with GST or GST-S1ED. Capture of VLA-4 or VEGFR2 was detected by immunoblotting. (FIG. 8D) HMEC-1 cells were plated on IIICS for 3 hr and double stained for VLA-4 and Sdc1, VEGFR2 and Sdc1, or VLA-4 and VEGFR2. (FIG. 8E) HMEC-1 cells were treated with DMSO, VLA-4 blocking antibody P1H4, β1-integrin blocking antibody mAb13, 10 μg/ml MMP9 blocking antibody, 125 μg/ml HPSE inhibitor SST0001, Vandetanib, VEGFR2 blocking antibody, 30 μM S1ED^210-233 or 30 μM S1ED^214-240 and then plated on IIICS. Images were taken from random field with 200× magnification for counting attached and spread cells. (FIG. 8F) HMEC-1 cells were plated on IIICS in the presence of 10 μM of S1ED^210-236, S1ED^210-233, S1ED^215-240, and S1ED^214-240. Lysates were probed on immunoblots with antibodies against pY^1175 VEGFR2 and VEGFR2. (FIG. 8G) Transwell migration assays towards IIICS (for 16 hr) were performed for HMEC-1 cells in the presence of P1H4, SST0001, Anti-MMP9, Vandetanib, S1ED^210-236, S1ED^210-233, and S1ED^214-240. Images were taken from random field with 200× magnification for counting migrated cells. (FIG. 8H) A 96-well plate coated with 50 μl Matrigel containing 100 μg/ml IIICS per well was solidified at 37° C. for 2 hrs. […]
The bottom chambers of Transwell filter chambers (8 μm pores; Corning) were coated with 40 μg/ml of FN. […] Cells from at least five random fields were counted.

CAG myeloma cells = assay: Cell spreading / attachment assay of CAG myeloma cells on FN or VCAM-1; format: cell-based, human; details: on FN, 2 hr; for HPSE^high cell adhesion / HPSE^high cell spreading: 0, 3, 10 and 30 μM peptide; for HPSE^low cell adhesion: high concentrations (30 μM)
HMEC-1 cells [2] = assay: In vitro tube formation assay of HMEC-1 cells on Matrigel; format: cell-based; details: 24 hrs, 10 μM peptides
Protocol: FIGS. 8A-H. HPSE mediated the Sdc1-coupled VEGFR2 complex in endothelial cells induces angiogenesis. (FIG. 8A) Lysates from HPSE^low, HPSE^high and HMEC-1 cells are probed by immunoblotting for expression of HPSE. (FIG. 8B) HMEC-1 cells were seeded at equal density and grown in serum-free media for 24 hr in the absence or presence of 125 μg/ml of the HPSE inhibitor SST0001. After 24 hr, conditioned media were harvested, and the level of shed Sdc1 in the conditioned medium from each condition was determined by immunoblotting. (FIG. 8C) HMEC-1 cell lysate was incubated overnight with glutathione beads coated with GST or GST-S1ED. Capture of VLA-4 or VEGFR2 was detected by immunoblotting. (FIG. 8D) HMEC-1 cells were plated on IIICS for 3 hr and double stained for VLA-4 and Sdc1, VEGFR2 and Sdc1, or VLA-4 and VEGFR2. (FIG. 8E) HMEC-1 cells were treated with DMSO, VLA-4 blocking antibody P1H4, β1-integrin blocking antibody mAb13, 10 μg/ml MMP9 blocking antibody, 125 μg/ml HPSE inhibitor SST0001, Vandetanib, VEGFR2 blocking antibody, 30 μM S1ED^210-233 or 30 μM S1ED^214-240 and then plated on IIICS. Images were taken from random field with 200× magnification for counting attached and spread cells. (FIG. 8F) HMEC-1 cells were plated on IIICS in the presence of 10 μM of S1ED^210-236, S1ED^210-233, S1ED^215-240, and S1ED^214-240. Lysates were probed on immunoblots with antibodies against pY^1175 VEGFR2 and VEGFR2. (FIG. 8G) Transwell migration assays towards IIICS (for 16 hr) were performed for HMEC-1 cells in the presence of P1H4, SST0001, Anti-MMP9, Vandetanib, S1ED^210-236, S1ED^210-233, and S1ED^214-240. Images were taken from random field with 200× magnification for counting migrated cells. (FIG. 8H) A 96-well plate coated with 50 μl Matrigel containing 100 μg/ml IIICS per well was solidified at 37° C. for 2 hrs. HMEC-1 cells (2.5×10^4 cells/well) were seeded into the plate and cultured in media containing VEGF, SST0001, 10 μM of S1ED^210-236, S1ED^210-233, S1ED^215-240, and S1ED^214-240 for 24 hrs. Enclosed capillary networks of tubes were taken from random field with 200× magnification.

VEGFR2 = biological target: T1, VEGFR2 (Homo sapiens, UniProt P35968); assay: GST pull down assay: capture of VEGFR2 by GST-S1ED; format: binding; details: HPSE^low cell lysates; peptide 30 M [sic]
T1 construct: endogenous in cells; host or cells: CAG human myeloma cells (HPSE^low = empty vector; HPSE^high = human HPSE cDNA)
T1 sequence (P35968 20-1356): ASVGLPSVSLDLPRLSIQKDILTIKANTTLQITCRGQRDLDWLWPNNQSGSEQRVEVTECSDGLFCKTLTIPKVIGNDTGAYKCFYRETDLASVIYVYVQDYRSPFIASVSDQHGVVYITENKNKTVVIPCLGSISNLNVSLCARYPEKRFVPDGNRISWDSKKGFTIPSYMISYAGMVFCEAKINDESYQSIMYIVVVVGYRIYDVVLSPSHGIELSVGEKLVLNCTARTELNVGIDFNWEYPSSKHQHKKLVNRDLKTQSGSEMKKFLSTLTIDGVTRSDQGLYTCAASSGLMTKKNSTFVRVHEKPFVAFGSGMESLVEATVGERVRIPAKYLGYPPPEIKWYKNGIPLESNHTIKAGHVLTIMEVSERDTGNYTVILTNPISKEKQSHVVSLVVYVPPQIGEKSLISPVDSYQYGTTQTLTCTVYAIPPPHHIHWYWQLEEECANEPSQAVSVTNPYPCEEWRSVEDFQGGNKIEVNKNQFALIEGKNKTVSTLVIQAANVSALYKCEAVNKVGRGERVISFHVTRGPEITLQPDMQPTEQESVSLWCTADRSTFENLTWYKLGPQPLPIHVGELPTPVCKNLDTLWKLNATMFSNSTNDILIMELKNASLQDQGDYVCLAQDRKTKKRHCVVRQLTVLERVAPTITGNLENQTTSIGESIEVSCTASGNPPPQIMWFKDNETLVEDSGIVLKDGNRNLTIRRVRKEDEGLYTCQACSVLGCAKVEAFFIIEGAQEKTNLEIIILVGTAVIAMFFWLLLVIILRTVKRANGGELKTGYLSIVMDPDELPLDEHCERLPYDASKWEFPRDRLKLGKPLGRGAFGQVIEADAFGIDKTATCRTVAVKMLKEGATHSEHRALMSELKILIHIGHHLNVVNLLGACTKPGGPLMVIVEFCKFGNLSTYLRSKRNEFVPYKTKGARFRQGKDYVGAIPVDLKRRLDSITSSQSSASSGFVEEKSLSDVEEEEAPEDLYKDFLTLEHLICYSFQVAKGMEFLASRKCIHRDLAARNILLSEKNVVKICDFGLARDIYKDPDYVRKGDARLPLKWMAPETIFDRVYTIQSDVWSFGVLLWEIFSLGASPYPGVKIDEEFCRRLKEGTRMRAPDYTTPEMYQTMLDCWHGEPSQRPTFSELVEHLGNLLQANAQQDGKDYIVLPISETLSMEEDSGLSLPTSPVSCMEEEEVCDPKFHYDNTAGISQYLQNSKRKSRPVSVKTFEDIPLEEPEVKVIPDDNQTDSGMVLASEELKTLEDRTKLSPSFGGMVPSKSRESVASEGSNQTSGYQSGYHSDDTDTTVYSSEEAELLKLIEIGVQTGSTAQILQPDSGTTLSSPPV
Protocol: FIGS. 6A-G. Peptides derived from the active site in Sdc1 activate or inhibit adhesion and invasion. (FIG. 6A) Transwell migration assays towards FN (for 16 hrs) were performed for HPSE low or high cells in the presence of 0, 0.3, 3, and 30 μM of S1ED^210-240. Cells migrating to the bottom side of the filter were counted from five random images for each treatment. (FIG. 6B) The sequence of S1ED210-240 is shown (SEQ ID NO: 3), as well as […] truncation mutants of the peptide (SEQ ID NOs: 5, 2, 4 and 7). Amino acids shown in red appear necessary for the spreading and invasive activity. (FIG. 6C) Images of HPSE^low and HPSE^high cells plated on FN for 2 hr. (FIG. 6D) HPSE^low cells were treated with 0, 0.3, 3, 10 and 30 μM of S1ED^210-236, S1ED^210-233, or S1ED^214-240, plated on FN for 2 hr, fixed and stained with fluorescent phalloidin. Cells from five random images were quantified for cell attachment and cell spreading. (FIG. 6E) HPSE^high cells were treated with 0, 3, 10, and 30 μM of S1ED^210-236, S1ED^210-233, and S1ED^214-240, plated on FN for 2 hr, then fixed, imaged and quantified as in FIG. 6D. (FIG. 6F) Transwell migration assays towards FN (for 16 hr) were performed for HPSE^low or HPSE^high cells in the presence of 30 μM of S1ED^210-236, S1ED^210-233, S1ED^214-240 and Vandetanib. (FIG. 6G) HPSE^low cell lysates were incubated overnight with glutathione beads coated with GST or GST-S1ED in the absence or presence of 30 μM of S1ED^210-236, S1ED^210-233, and S1ED^214-240. Capture of VLA-4 or VEGFR2 was detected by immunoblotting. Sequences in FIG. 6B are 210-240 (SEQ ID NO: 3), 210-236 (SEQ ID NO: 2), 210-233 (SEQ ID NO: 4), 214-240 (SEQ ID NO: 5) and 214-236 (SEQ ID NO: 7).
CAG cells were washed with CMF-PBS and then lysed for 20 min on ice in lysis buffer. Cell debris was removed by centrifugation at 13000 rpm for 20 min at 4° C. Whole cell lysates were then incubated at 4° C. overnight with either 3 μM GST or 3 μM GST-S1ED in the absence or presence of 1 μM, 3 μM, and 10 μM S1ED^210-240 peptide. GST or GST-S1ED was captured by addition of glutathione Sepharose and the beads were washed with ice-cold lysis buffer and CMF-PBS, prior to addition of SDS-PAGE sample buffer and analyszed by electrophoresis and western blotting as described previously.

Row | Substance | invasion of HMEC-1 cells (HMEC-1 cells [1]) | HPSE^low cell spreading (CAG myeloma cells; 0, 0.3, 3, 10 and 30 μM peptide) | HPSE^high cell adhesion (CAG myeloma cells) | HPSE^high cell spreading (CAG myeloma cells) | HPSE^low cell adhesion (CAG myeloma cells) | tube formation by HMEC-1 cells (HMEC-1 cells [2]) | competition for capture of VEGFR2 by GST-S1ED (VEGFR2)
1 | DFTFETSGENTAVVAVEPDRRNQSPVD [S1ED^210-236] | all block invasion | induces HPSE^low cell spreading equal to that observed with S1ED^210-240 | induce cell detachment | block cell spreading when added at increasing concentrations | block cell adhesion | blocks tube formation | effectively blocks capture of both receptors
2 | S1ED^210-233: syndecan-1 ectodomain peptide, residues 210-233 (SEQ ID NO: 4) (DFTFETSGENTAVVAVEPDRRNQS) | all block invasion |  | induce cell detachment | block cell spreading when added at increasing concentrations | block cell adhesion | blocks tube formation | competes for capture of VEGFR2
